≈ marks a conversion by molar mass, not a printed value.

For the data set the following is noted: buffer; pH 7.4; 200.0 µM.
In turn, `O=[N+]([O-])c1cccc(S(=O)(=O)N2CCc3ccccc3C2)c1` came in with a kinetic solubility of less than 0.3 µg/mL.
The compound `N/C(=N\OC(=O)Nc1ccccc1)c1cccc(C(F)(F)F)c1` showed a kinetic solubility of 27.9 µg/mL (≈ 86.3 µM).
`O=S(=O)(NCCC1CC1(Cl)Cl)c1ccccc1` (configuration not stated) had a solubility (kinetic) of 39.8 µg/mL (≈ 135 µM).
The result for `CC(Cl)C(=O)N1c2ccccc2CCc2ccccc21` (configuration not stated) reads 41.8 µg/mL (≈ 146 µM).
The compound `COC(=O)c1ccsc1NC(=O)CCc1ccccc1` yielded a kinetic solubility of 9.6 µg/mL (≈ 33.2 µM).
The result for `CCC(CC)c1nnc(NC(=O)c2cccc(S(=O)(=O)N3CCOCC3)c2)s1` reads greater than 63.7 µg/mL; that for `Cc1ccc(NC(=O)CN2CCc3ccccc3C2)cc1C`, 18.8 µg/mL (≈ 63.9 µM).
Then `O=C(Cc1ccc(Br)cc1)Nc1ccc(Cl)cc1`, with less than 0.7 µg/mL; and `CCCOP(=O)(c1ccc(N(C)C)cc1)C(O)c1cc(OC)ccc1OC` (configuration not stated), with greater than 59 µg/mL.
Consider `NC1=NC(=Nc2ccc(S(N)(=O)=O)cc2)c2ccccc21`, for which the solubility (kinetic) was greater than 45.1 µg/mL.
The result for `COc1cccc(S(=O)(=O)N2CCN(C(=O)c3ccco3)CC2)c1` reads 51.3 µg/mL (≈ 146 µM); that for `Cc1ccc(C(=O)NCc2ccco2)c(C)c1`, 33.6 µg/mL (≈ 147 µM).
Then `CNC(=O)c1c(NC(=O)c2cccc(C)c2)sc2c1CCC2`, with 0.4 µg/mL (≈ 1.27 µM); and `O=c1nc(Nc2ccccc2)oc2ccccc12`, with 26.8 µg/mL (≈ 112 µM).
On to `Cc1cccc(NC(=O)c2ccc(N3CCOCC3)c([N+](=O)[O-])c2)n1`, for which the solubility (kinetic) worked out at 38.1 µg/mL (≈ 111 µM).
The result for `C(/C=C/c1ccccn1)=C\c1ccccc1` reads 0.7 µg/mL (≈ 3.38 µM); that for `Cc1ccc(-c2cc(C(=O)N3CCCCCC3)no2)cc1`, 1.3 µg/mL (≈ 4.57 µM).
On to `CC(C)Oc1cccc(C2NC(=O)c3ccccc3O2)c1` (configuration not stated), for which the solubility (kinetic) was 6.7 µg/mL (≈ 23.6 µM).
In turn, `Cc1cc2ccc3ccccc3c2cc1CN(C)C.Cl` showed a solubility (kinetic) of 24.5 µg/mL.
The result for `CCOCCN(C(=O)c1ccccc1Cl)c1cccc(C)c1C` reads greater than 49.8 µg/mL.
Then `CCc1nonc1NC(=O)c1oc2ccc(F)cc2c1C`, with 0.3 µg/mL (≈ 1.04 µM); and `Oc1ccc(Cl)cc1CNc1nccs1`, with 13.9 µg/mL (≈ 57.7 µM); and `Cc1nc(N2CCOCC2)[nH]c(=O)c1C(O)C(Cl)(Cl)Cl` (configuration not stated), with 47.1 µg/mL (≈ 137 µM).
As to `Cc1cccn2cc(-c3cc4ccccc4oc3=O)nc12`, the solubility (kinetic) is 0.6 µg/mL (≈ 2.17 µM).
Then `O=C(O)C1CCN(C(=O)CSc2nnc3ccccn23)CC1`, with greater than 48.1 µg/mL.
The result for `O=C(COC(=O)/C=C/c1cccc([N+](=O)[O-])c1)NCc1ccco1` reads 18.5 µg/mL (≈ 56 µM); that for `Cc1ccc2nc(N3CCOCC3)c(C=O)c(=O)n2c1`, greater than 41 µg/mL.
The result for `Cc1ccc(-c2noc(CCC(=O)NC3CC3)n2)cc1` reads greater than 40.7 µg/mL; that for `O=C(NCc1ccccc1Cl)C1CCN(C(=O)c2ccco2)CC1`, greater than 52 µg/mL.
Turning to `CCOC(=O)c1cc(C(C)(C)C)nc(SC)c1C#N`, the kinetic solubility was determined as 1.3 µg/mL (≈ 4.67 µM).
Compound `O=C(Nc1ccncc1)Nc1cccc(F)c1` had a kinetic solubility greater than 34.7 µg/mL.
Then `CCCS(=O)(=O)Nc1c(C(=O)O)[nH]c2ccc(OC)cc12`, with 46.3 µg/mL (≈ 148 µM); and `Cc1ccc(C(=O)N2C(=O)C(c3ccccc3)Oc3ccccc32)cc1` (configuration not stated), with less than 0.7 µg/mL; and `COc1ccc(C(=O)OCC(=O)NC2CC2)cc1OC`, with greater than 41.9 µg/mL.
For `COc1ccc2oc(C(=O)OCC(=O)NC3CCCC3)c(C)c2c1`, the kinetic solubility was determined as 6.7 µg/mL (≈ 20.2 µM).
Then `COc1ccccc1Cc1nc(-c2ccncc2)no1`, with 33.4 µg/mL (≈ 125 µM).
Then `Cc1cc(C)c2nc(Cl)c(Cl)nc2c1`, with 2.7 µg/mL (≈ 11.9 µM).
The result for `Cc1ccc(SCC(=O)NCc2ccc(F)cc2)cc1` reads 9.5 µg/mL (≈ 32.8 µM); that for `O=C(Nc1ccccn1)c1ccc2c(=O)n3c(nc2c1)CCCCC3`, greater than 50.2 µg/mL; that for `COc1cc2c(cc1OC)CN(C(=O)CCN1C(=O)C3CCCCC3C1=O)CC2` (configuration not stated), 46.2 µg/mL (≈ 115 µM).
In turn, `Cc1cc(Br)c2c(c1)C1(OCCO1)C(=O)N2` had a solubility (kinetic) greater than 42.6 µg/mL.
Take `CCCCCCCCOc1ccc(C2CC(=O)NC2=O)cc1` (configuration not stated): the solubility (kinetic) is less than 0.6 µg/mL.

These data come from PubChem BioAssay AID1996.
